From patent US20080146657A1, “Plant-Origin Alpha3-Adrenoceptor Agonist and Use of the Same” (priority 2003, published 2008)
Read-outs that look alike come from different tables or passages of the source.

Legend:
3T3-L1 adipocytes = assay: Measurement of lipolytic effect using 3T3-L1 cells (glycerol release); type: cell-based, mouse; details: 5 μM to 500 μM; 3 days incubation
Description: 3T3-L1 cells which are adipocyte precursor cells derived from mice (purchased from Human Science Research Resource Bank) were added into a 96-well plate at 1×10^4 cells/well, and then cultured in Dulbecco's modified Eagle medium (D-MEM, GIBCO) supplemented with 10% fetal calf serum (FCS) at 37° C. in a 5% CO2 atmosphere. To induce differentiation to adipocytes, right before the cells reaches confluency, the medium was exchanged with 10% FCS-containing D-MEM supplemented with 0.5 mM 3-isobutyl-1-methylxanthine, 2×10^−7 M dexamethasone, and 0.8 μM insulin. Two days later, the medium was exchanged with 10% FCS-containing D-MEM supplemented only with 0.8 μM insulin. […] The culture medium of the cells cultured in the 96-well plate were removed by aspiration, 10% FCS-containing D-MEM containing the test substance was added at 100 μL/well, and after incubation for 3 days, 80 μL of the culture medium was collected from each well, and the amount of glycerol in the culture medium was determined using “F-Kit Glycerol” (Boehringer Mannheim). […] To a test medium, 0.5 to 500 μg/mL of dried lotus leaf extract, 0.5 to 500 μM of quercetin, and 10^−8 M to 10^−5 M of isoproterenol as a positive control were added individually, and the amount of glycerol released into the medium due to degradation of the fat stored in 3T3-L1 adipocytes was measured.

[1] = tested on: rat β-adrenergic receptor; details: rat adipocytes treated with quercetin; cited from earlier work
[2] = target: T1, human β3-adrenergic receptor (Homo sapiens, UniProt P13945); assay: Measurement of human β3-adrenergic receptor agonist activity (intracellular cAMP, recombinant CHO-K1 cells); type: cell-based
T1 construct: expressed in transfected cells; vector pTracer-EF A
T1 sequence (P13945 1-402 limits assumed): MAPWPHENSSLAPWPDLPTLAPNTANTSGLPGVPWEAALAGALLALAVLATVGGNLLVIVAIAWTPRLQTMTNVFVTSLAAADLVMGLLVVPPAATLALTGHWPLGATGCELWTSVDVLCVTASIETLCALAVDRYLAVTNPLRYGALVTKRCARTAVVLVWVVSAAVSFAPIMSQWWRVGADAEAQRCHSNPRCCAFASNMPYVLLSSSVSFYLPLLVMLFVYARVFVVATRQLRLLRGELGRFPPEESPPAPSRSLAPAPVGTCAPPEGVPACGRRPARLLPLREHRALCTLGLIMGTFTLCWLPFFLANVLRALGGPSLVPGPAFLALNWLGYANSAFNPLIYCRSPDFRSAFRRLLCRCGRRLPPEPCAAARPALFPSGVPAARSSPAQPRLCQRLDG
Description: The obtained recombinant cells were cultured in a 96-well microplate until the cell density reaches 100%. After the medium was removed, the cells were washed once with Dulbecco's modified phosphate buffer solution (hereinafter, abbreviated as PBS; TaKaRa), and then 100 μL of an assay buffer [DMEM, 10% FCS, 20 mM HEPES (pH 7.2), 0.1 mM isobutylmethylxanthine] containing 10 μM isoproterenol was added. As a control, the assay buffer was used without addition of isoproterenol. After incubation at 37° C. for 20 minutes, the cells were washed once with PBS, and then the amount of intracellular cAMP were quantified using a cAMP EIA Kit (Amersham Bioscience). […] The selected recombinant cells were further cultured. […]
The human β3-adrenergic receptor-expressing recombinant 6H4-2d3 was cultured in a 96-well microplate in DMEM containing 10% FCS and 500 μg/mL Zeocin at 37° C. in a 5% CO2 atmosphere. […] The cells were washed once with PBS, and an assay buffer [DMEM, 10% FCS, 20 mM HEPES (pH 7.2), 0.1 mM isobutylmethylxanthine] supplemented with the test substance to be measured was added at 100 μL/well. After incubation at 37° C. for 10 minutes, the cells were washed once with PBS, and then their intracellular cAMP levels were quantified using a cAMP EIA Kit (Amersham Bioscience). […] The same test substance was measured three times and the mean and standard deviation of the measurements were used. […]

[3] = cited from earlier work

Structure (SMILES): O=c1c(O)c(-c2ccc(O)c(O)c2)oc2cc(O)cc(O)c12 [quercetin, 3,3′,4′,5,7-pentahydroxyflavone]
- Lipolysis (glycerol released into the medium) (3T3-L1 adipocytes): significantly promoted
- cAMP accumulation [1]: cAMP accumulates
- accumulation of cAMP ([2]; 15 μM, 30 µM, 60 μM, only in CHO-K1 cells expressing the receptor, not in non-expressing CHO-K1): significant accumulation of cAMP
- Solubility ([3]; boiling water): slightly soluble
- Solubility ([3]; cold alcohol-ether): poorly soluble
- Solubility ([3]; cold water): insoluble
- Solubility ([3]; hot alcohol-glacial acetic acid): readily soluble

Structure (SMILES): O=C(O)[C@H]1O[C@@H](Oc2c(-c3ccc(O)c(O)c3)oc3cc(O)cc(O)c3c2=O)[C@H](O)[C@@H](O)[C@@H]1O [Q3GA, quercetin 3-O-β-D-glucuronide]
- β3-adrenergic receptor agonist activity (cAMP) ([2]; 1 μM, 10 μM, 100 μM, 1000 μM, compared with quercetin): β3-adrenergic receptor agonist activity similar to that of quercetin
